Assay results published in patent US20130204033A1, “ANTIPROLIFERATIVE COMPOUNDS, CONJUGATES THEREOF, METHODS THEREFOR, AND USES THEREOF” (Medarex, Inc., priority 2009, published 2013).
Read-outs that look alike come from different tables or passages of the source.

Legend:
Type in all cases: cell-based, human
NCI-H460 = assay: 3H thymidine proliferation assay, NCI-H460
Description: (§1) This example generally describes the procedures used to assay the antiproliferative activity of compounds of this invention or their conjugates. Human tumor cell lines were obtained from the American Type Culture Collection (ATCC), P.O. Box 1549, Manassas, Va. 20108, USA, and cultured according to instruction from the ATCC. Cells were seeded at 1.0×10^3 or 1.0×10^4 cells/well in 96-well plates for 3 h for ATP assays or ^3H thymidine assays, respectively. 1:3 serial dilutions of free (unconjugated) compounds or their conjugates were added to the wells. Plates were allowed to incubate for 24 to 72 h. The ^3H thymidine plates were pulsed with 1.0 μCi of ^3H-thymidine per well for the last 24 hours of the total incubation period, harvested, and read on a Top Count Scintillation Counter (Packard Instruments, Meriden, Conn.). ATP levels in the ATP plates were measured using the […]-GLO® Luminescent Cell Viability kit following the manufacturer's manual and read on a GLOMAX® 20/20 luminometer (both from Promega, Madison, Wis., USA). The EC50 values—the concentration at which an agent inhibits or reduces cell proliferation by 50% —were determined using PRISM™ software, version 4.0 (GraphPad Software, La Jolla, Calif., USA).
(§2) Using the ^3H thymidine or the ATP luminescence assay, or both, the activities of compounds of this invention were assayed against the following cancer cell lines: HCT-15 (colorectal cancer, multi-drug resistant (MDR)); Hep3B (liver cancer); LNCaP (prostate cancer, androgen receptor positive (AR^+)); MDA-MB-231 (breast cancer, estrogen receptor, progesterone receptor, and Her2 negative (triple negative)); A2058 (melanoma); U-87 MG (glioblastoma); NCI-H460 (NSCLC); A549 (NSCLC); HPAC (pancreatic cancer, primary); PC3 (prostate cancer, AR); BT474 (breast cancer, Her2 highly positive (Her2hi)); SKOV3 (ovarian cancer, Her2hi); 786-O (renal cancer); UO-31 (renal cancer, MDR); NCI-H740 (SCLC); DMS53 (SCLC); SK-BR3 (breast cancer, Her2hi); ZR-75 (breast cancer, estrogen receptor positive); OVCAR3 (ovarian cancer); HL-60 (APL); OVCAR8/Adr (ovarian cancer, MDR); CEM-Cl (ALL); Nomo-1 (AML); RPMI-8226 (MM)); Raji (lymphoma); SW-480 (colorectal cancer, metastatic); SW-620 (colorectal cancer); and H226 (lung cancer). (Not all compounds were assayed against all cell lines.)
(§3) Table 2 provides the data for proliferation assays using the ^3H thymidine method, with an incubation period of 72 h.

RPMI-8226 = assay: ATP luminescence proliferation assay, RPMI-8226
Description: as §1, §2
(§4) Table 3 provides the data for the ATP luminescence proliferation assays, with an incubation period of 48, 72, or 96 h, as noted.

DMS53 = assay: ATP luminescence proliferation assay, DMS53
Description: as §1, §2, §4

SK-BR3 [1] = assay: 3H thymidine proliferation assay, SK-BR3; conditions: 3H thymidine method, 72 h incubation
Description: as §1, §2, §3

MDA-MB-231 = assay: ATP luminescence proliferation assay, MDA-MB-231
Description: as §1, §2, §4

PC3 = assay: 3H thymidine proliferation assay, PC3
Description: as §1, §2, §3

Raji = assay: 3H thymidine proliferation assay, Raji
Description: as §1, §2, §3

SK-BR3 [2] = assay: ATP luminescence proliferation assay, SK-BR3
Description: as §1, §2, §4

ZR-75 = assay: ATP luminescence proliferation assay, ZR-75
Description: as §1, §2, §4

A2058 [3] = assay: ATP luminescence proliferation assay, A2058
Description: as §1, §2, §4

A2058 [4] = assay: 3H thymidine proliferation assay, A2058; conditions: 3H thymidine method, 72 h incubation
Description: as §1, §2, §3

A549 = assay: 3H thymidine proliferation assay, A549
Description: as §1, §2, §3

[5] = Homo sapiens, NCI-H460, read-out: EC50, NCI-H460, 3H thymidine method, 72 h incubation
[6] = Homo sapiens, RPMI-8226, 72 h, read-out: EC50 RPMI-8226 (72 h), ATP luminescence, RPMI-8226, 72 h incubation
[7] = Homo sapiens, DMS-53, 48 h, read-out: EC50 DMS53 (48 h), ATP luminescence, DMS53, 48 h incubation
[8] = Homo sapiens, MDA-MB-231, 48 h, read-out: EC50 MDA-MB-231 (48 h), ATP luminescence, MDA-MB-231, 48 h incubation
[9] = Homo sapiens, PC-3, read-out: EC50, PC3, 3H thymidine method, 72 h incubation
[10] = Homo sapiens, Raji, read-out: EC50, Raji, 3H thymidine method, 72 h incubation
[11] = Homo sapiens, SK-BR-3, 48 h, read-out: EC50 SK-BR3 (48 h), ATP luminescence, SK-BR3, 48 h incubation
[12] = Homo sapiens, ZR75, 48 h, read-out: EC50 ZR-75 (48 h), ATP luminescence, ZR-75, 48 h incubation
[13] = Homo sapiens, A2058, 48 h, read-out: EC50 A2058 (48 h), ATP luminescence, A2058, 48 h incubation
[14] = Homo sapiens, A549, read-out: EC50, A549, 3H thymidine method, 72 h incubation
[15] = 3H thymidine method, 72 h incubation, read-out: EC50, NCI-H460
[16] = ATP luminescence, RPMI-8226, 72 h incubation, read-out: EC50 RPMI-8226 (72 h)
[17] = 3H thymidine method, 72 h incubation, read-out: EC50, PC3
[18] = 3H thymidine method, 72 h incubation, read-out: EC50, Raji
[19] = ATP luminescence, SK-BR3, 48 h incubation, read-out: EC50 SK-BR3 (48 h)
[20] = ATP luminescence, ZR-75, 48 h incubation, read-out: EC50 ZR-75 (48 h)
[21] = 3H thymidine method, 72 h incubation, read-out: EC50, A549

Row | Compound | EC50 (NCI-H460; [5]) | EC50 (RPMI-8226; [6]) | EC50 (DMS53; [7]) | EC50 (SK-BR3 [1]; Homo sapiens, SK-BR-3) | EC50 (MDA-MB-231; [8]) | EC50 (PC3; [9]) | EC50 (Raji; [10]) | EC50 (SK-BR3 [2]; [11]) | EC50 (ZR-75; [12]) | EC50 (A2058 [3]; [13]) | EC50 (A2058 [4]; Homo sapiens, A2058) | EC50 (A549; [14]) | EC50 (NCI-H460; [15]) | EC50 (RPMI-8226; [16]) | EC50 (SK-BR3 [1]) | EC50 (PC3; [17]) | EC50 (Raji; [18]) | EC50 (SK-BR3 [2]; [19]) | EC50 (ZR-75; [20]) | EC50 (A2058 [4]) | also measured
1 | CC[C@H](C)[C@H](NC(=O)[C@H]1CCCCN1C)C(=O)N(C)[C@H](C[C@@H](OC)c1nc(C(=O)NC(Cc2ccccc2)C[C@H](C)C(=O)O)cs1)C(C)C (stereo partly drawn) [Compound 15] | 2 nM | 2.6 nM | 32 nM | 17 nM | 5.6 nM | 1.7 nM | 0.47 nM | 3.9 nM | 13 nM | 3.5 nM | 1.6 nM | 2.1 nM | – | – | – | – | – | – | – | – | –
2 | CC[C@H](C)[C@H](NC(=O)[C@H]1CCCCN1C)C(=O)N(C)[C@H](C[C@@H](OC)c1nc(C(=O)N[C@@H](Cc2ccccc2)C(=O)OC)cs1)C(C)C [Compound 16] | – | – | – | – | – | – | – | – | – | – | – | – | > 100 nM | 15 nM | > 100 nM | > 100 nM | 28 nM | 6.6 nM | 11 nM | > 100 nM | EC50 (DMS53; ATP luminescence, DMS53, 48 h incubation, read-out: EC50 DMS53 (48 h)): 50 nM; EC50 (MDA-MB-231; ATP luminescence, MDA-MB-231, 48 h incubation, read-out: EC50 MDA-MB-231 (48 h)): 28 nM; EC50 (A2058 [3]; ATP luminescence, A2058, 48 h incubation, read-out: EC50 A2058 (48 h)): 30 nM; EC50 (A549; [21]): > 100 nM
3 | CCCC(NC(=O)c1csc([C@@H](C[C@H](C(C)C)N(C)C(=O)[C@@H](NC(=O)[C@H]2CCCCN2C)[C@@H](C)CC)OC)n1)C(=O)OC (stereo partly drawn) [Compound 17] | > 100 nM | 15 nM | ~80 nM | > 100 nM | 65 nM | 82 nM | 53 nM | 24 nM | 24 nM | 30 nM | > 100 nM | > 100 nM | – | – | – | – | – | – | – | – | –
4 | CCC[C@H](NC(=O)[C@H](Cc1ccccc1)NC(=O)c1csc([C@@H](C[C@H](C(C)C)N(C)C(=O)[C@@H](NC(=O)[C@H]2CCCCN2C)[C@@H](C)CC)OC)n1)C(=O)OC [Compound 19] | – | – | – | – | – | – | – | – | – | – | – | – | > 100 nM | 9.6 nM | > 100 nM | > 100 nM | 32 nM | 3.9 nM | 20 nM | 0.13 nM | EC50 (DMS53; ATP luminescence, DMS53, 72 h incubation, read-out: EC50 DMS53 (72 h)): 87 nM; EC50 (MDA-MB-231; ATP luminescence, MDA-MB-231, 72 h incubation, read-out: EC50 MDA-MB-231 (72 h)): 32 nM; EC50 (A2058 [3]; ATP luminescence, A2058, 72 h incubation, read-out: EC50 A2058 (72 h)): 26 nM; EC50 (A549; [21]): > 100 nM
5 | CC[C@H](C)[C@H](NC(=O)[C@H]1CCCCN1C)C(=O)N(C)[C@H](C[C@@H](OC)c1nc(C(=O)N[C@@H](Cc2ccccc2)C(=O)N[C@@H](C)C(=O)OC)cs1)C(C)C [Compound 24] | > 100 nM | 8.4 nM | – | > 100 nM | – | 63 nM | 11 nM | 8.9 nM | 8.4 nM | – | 0.12 nM | 38 nM | – | – | – | – | – | – | – | – | EC50 (DMS53; Homo sapiens, DMS-53, 72 h, read-out: EC50 DMS53 (72 h), ATP luminescence, DMS53, 72 h incubation): > 100 nM; EC50 (MDA-MB-231; Homo sapiens, MDA-MB-231, 72 h, read-out: EC50 MDA-MB-231 (72 h), ATP luminescence, MDA-MB-231, 72 h incubation): 13 nM; EC50 (A2058 [3]; Homo sapiens, A2058, 72 h, read-out: EC50 A2058 (72 h), ATP luminescence, A2058, 72 h incubation): 14 nM
